Measurements published in paper PMC6108835, “Target-Based Discovery of an Inhibitor of the Regulatory Phosphatase PPP1R15B” (Cell, 2018).
Several values for one entry are separate records, joined by “and”; a condition that tells them apart may be missing. Identical values can stand only once. Each block holds one compound with its values, some of them ahead of it. Peptide text beside a SMILES is read from it. * marks the point of attachment. Cbz = O=C(OCc1ccccc1)*

Legend:
[1] = target: T1, R15B (Homo sapiens, UniProt Q5SWA1); experiment: R15B levels on immunoblots of HeLa cell lysates; format: cell-based; details: HeLa cells, Raphin1 10 μM; MG-132 10 μM; NSM-873 or CB-5083 1 μM
T1 construct: endogenous in cells; host or cells: HeLa
T1 sequence (Q5SWA1 1-713): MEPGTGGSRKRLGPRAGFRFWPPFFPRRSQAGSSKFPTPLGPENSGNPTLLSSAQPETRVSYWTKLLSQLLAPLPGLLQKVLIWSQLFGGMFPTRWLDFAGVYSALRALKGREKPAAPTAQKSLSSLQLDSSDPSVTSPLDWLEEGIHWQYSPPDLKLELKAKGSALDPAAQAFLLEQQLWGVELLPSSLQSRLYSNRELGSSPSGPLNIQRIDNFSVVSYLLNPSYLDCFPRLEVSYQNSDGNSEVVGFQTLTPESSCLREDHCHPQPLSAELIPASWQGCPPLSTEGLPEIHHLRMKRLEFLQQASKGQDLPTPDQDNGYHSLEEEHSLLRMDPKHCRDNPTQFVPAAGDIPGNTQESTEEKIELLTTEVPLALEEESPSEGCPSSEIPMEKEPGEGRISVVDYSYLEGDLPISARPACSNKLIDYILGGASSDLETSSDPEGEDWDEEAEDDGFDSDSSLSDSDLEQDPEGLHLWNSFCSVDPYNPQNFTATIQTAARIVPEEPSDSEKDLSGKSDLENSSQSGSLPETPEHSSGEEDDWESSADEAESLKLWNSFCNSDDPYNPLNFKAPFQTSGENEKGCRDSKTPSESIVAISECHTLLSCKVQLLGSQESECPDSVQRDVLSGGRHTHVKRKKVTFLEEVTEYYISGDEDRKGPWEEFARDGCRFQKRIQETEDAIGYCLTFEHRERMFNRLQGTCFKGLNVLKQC
Method: HeLa or MEF cells (90,000 cells/mL) were plated in 12-well plates (1 mL/well). The following day cells were treated as indicated; the medium was removed, fresh medium containing compound added and incubated at 37°C for the times indicated. The time course was performed in reverse order to facilitate collecting all samples at the same time. At the end of treatment cells were washed two times with ice-cold PBS and lysed in 150 μL Laemmli Buffer. […] Proteins were transferred to the nitrocellulose membrane using the iBlot 2 system (ThermoFisher Scientific). Membrane was blocked in 5% skimmed milk for 30 min and then probed with primary antibodies followed by incubation with the appropriate horseradish peroxidase-conjugated secondary antibodies (Promega). Proteins were visualized using ECL Prime (GE Healthcare) and imaged in the Chemi-Smart 5000 (Vilber-Lourmat, France) or ChemiDoc Touch (BioRad). Bands were quantified using ImageJ (NIH, USA).

[2] = test system: liver; experiment: Oil Red O staining of liver (steatosis); format: in vivo, mouse; details: wild-type mice, single dose 40 mg/kg; Raphin1 also 2 mg/kg for 10 weeks
Method: Treatment- and test-naive C57BL/6J males and females were used. Mice received a single dose of Raphin1 or cycloheximide (CHX, Sigma-Aldrich) at 40 mg/kg at 3 months of age or were treated chronically with Raphin1 at 2 mg/kg from 4 weeks of age for 10 weeks before the analysis. Mice were culled by cervical dislocation, liver was extracted, fresh-frozen in the O.C.T. compound (VWR International) and kept at −80°C until use. Oil Red O staining was performed on 10 μm thick frozen cryosections (Leica CM1850). Sections were washed in 60% propanol and stained for 20 min at room temperature with filtered 0.33% Oil Red O solution (VWR International). After rinsing with distilled water sections were counterstained with hematoxylin (VWR, diluted 1:15) for 1 min. Images were acquired with a 40X objective using SCN400F scanner (Leica).

[3] = target: T2, R15A-PP1c holophosphatase (R15A^325-636-PP1c) (Homo sapiens, UniProt O75807); experiment: Holophosphatase SPR, compounds binding to reconstituted R15A-PP1c; details: for Binding to R15A-PP1c (in words): SPR, up to 25 μM
T2 construct: cDNAs encoding amino acids 325-636 of R15A and 340-698 of R15B were cloned into pMAL-c5x; made in house; host or cells: R15A: E. coli BL21-Gold (DE3) pLysS; bio-PP1c: Sf9 insect cells (baculovirus)
Method: (§1) Small molecules were stored as 50 mM stock solutions in 100% DMSO. […] If necessary the concentration range was adjusted to accurately determine the KD depending on the initial results. […] This was followed by 1 min stabilization period, to wash off any unspecific binding. […] After each dilution series, the surface was regenerated using 3 M NaCl for 90 s. […] In order to be able to correct for small variations in DMSO concentration between samples, eight solvent samples ranging from 0.06 to 8% DMSO were injected every 50th cycle. The flow cell temperature was 20°C.

[4] = target: T3, R15B-PP1c holophosphatase (R15B^340-698-PP1c) (Homo sapiens, UniProt Q5SWA1); experiment: Holophosphatase SPR, compounds binding to reconstituted R15B-PP1c; details: SPR, up to 25 μM
T3 construct: cDNAs encoding amino acids 325-636 of R15A and 340-698 of R15B were cloned into pMAL-c5x; made in house; host or cells: R15B: E. coli BL21-Gold (DE3) pLysS; bio-PP1c: Sf9 insect cells (baculovirus)
Method: as §1

[5] = target: T4, PP1c (Homo sapiens, UniProt P36873); experiment: SPR, compounds binding to PP1c alone immobilized on streptavidin chip; design: cDNA encoding for human PP1cγ (aa 1-322) was cloned into two baculovirus transfer vectors; made in house; host or cells: Sf9 insect cells (baculovirus); details: PP1c immobilized on SA chip
Method: as §1

[6] = target: T5, R15B (Homo sapiens, UniProt Q5SWA1); experiment: Limited trypsin digestion of R15B; details: R15 3 μM, compound 100 μM, trypsin 5 nM, 5 min, 22°C
T5 construct: cDNAs encoding amino acids 325-636 of R15A and 340-698 of R15B were cloned into pMAL-c5x; made in house; host or cells: E. coli BL21-Gold (DE3) pLysS
Method: (§2) Reactions were initiated by addition of 5 nM of trypsin from bovine pancreas (Sigma-Aldrich), made up in PBS, and allowed to proceed for 5 min at 22°C, with shaking at 350 rpm. […] Proteins were visualized by staining with InstantBlue Protein Stain (Expedeon).

[7] = target: T4, PP1c; experiment: PP1c catalytic activity assay (DiFMUP, EnzChek); details: his-PP1c 30 nM
Method: Residual activity of PP1c was measured using the EnzChek Phosphatase Assay Kit (ThermoFisher Scientific) according to the supplier’s instructions, with minor modifications.

[8] = test system: eIF2α phosphorylation (HeLa cells); experiment: Protein analyses on immunoblots, HeLa cells; format: cell-based, human; details: unstressed, 10 μM, 0-10 h
Method: HeLa or MEF cells (90,000 cells/mL) were plated in 12-well plates (1 mL/well). The following day cells were treated as indicated; the medium was removed, fresh medium containing compound added and incubated at 37°C for the times indicated. The time course was performed in reverse order to facilitate collecting all samples at the same time. At the end of treatment cells were washed two times with ice-cold PBS and lysed in 150 μL Laemmli Buffer. Lysates were transferred to 1.5 mL eppendorf tubes, boiled at 95°C for 5 min, sonicated and resolved on Bolt SDS-PAGE 4%–12% Bis-Tris gels (ThermoFisher Scientific). Proteins were transferred to the nitrocellulose membrane using the iBlot 2 system (ThermoFisher Scientific). Membrane was blocked in 5% skimmed milk for 30 min and then probed with primary antibodies followed by incubation with the appropriate horseradish peroxidase-conjugated secondary antibodies (Promega). Proteins were visualized using ECL Prime (GE Healthcare) and imaged in the Chemi-Smart 5000 (Vilber-Lourmat, France) or ChemiDoc Touch (BioRad). Bands were quantified using ImageJ (NIH, USA). The following primary antibodies were used: e-IF2α-P (ThermoFisher Scientific (#44-728G), 1:1,000), e-IF2α (Abcam (#ab5369), 1:1,000), tubulin (Sigma-Aldrich (#T5168), 1:4,000), BiP (BD Biosciences PharMingen (#610978), 1:1,000), ATF4 (Santa Cruz Biotechnology (#sc-200), 1:500), Ppp1r15a (Proteintech (#10449-1-AP), 1:1,000), Ppp1r15b (Proteintech (#14634-1-AP), 1:1,000) and CHOP (ABR Affinity BioReagents (#MA1-250), 1:1,000).

[9] = test system: HeLa cells; experiment: Assessment of translation rates (35S-methionine), HeLa cells; format: cell-based, human; details: 10 μM; for Label (%), newly synthesized proteins (35S-methionine): HeLa, 0 h = 100
Method: HeLa or MEF cells (90,000 cells/mL) were plated in 12-well plates (1 mL/well). The following day cells were treated as indicated; the medium was removed, fresh medium containing compound added and incubated at 37°C for the times indicated. The time course was performed in reverse order to facilitate labeling all samples at the same time. After the treatment the cells were labeled with 100 μCi/mL ^35S-methionine (Hartmann Analytic) for 10 min at 37°C (300 μL fresh medium containing 3 μL ^35S-methionine was added to each well). Note that cells were not starved in methionine-free media before labeling with ^35S-methionine for monitoring protein synthesis. The labeled cells were then washed twice with ice-cold PBS and lysed in 120 μL Laemmli Buffer. Lysates were transferred to 1.5 mL eppendorf tubes, boiled at 95°C for 5 min, sonicated and resolved on Bolt SDS-PAGE 4%–12% Bis-Tris gels (ThermoFisher Scientific). Gels were then stained with InstantBlue (Expedeon) and after the gels had been imaged they were transferred to a 20% ethanol, 7% acetic acid, 4% glycerol solution for 10 min. This was to prevent the gels from cracking while drying. The gels were transferred to filter paper and dried using a gel dryer. The gels were then exposed to a Storage Phosphor Screen (GE Healthcare) and analyzed by phosphorimaging using a Typhoon Imager Scanner (GE Healthcare).

[10] = target: R15A (Homo sapiens, UniProt O75807); experiment: Limited trypsin digestion of R15A; design: cDNAs encoding amino acids 325-636 of R15A and 340-698 of R15B were cloned into pMAL-c5x; made in house; host or cells: E. coli BL21-Gold (DE3) pLysS; details: R15 3 μM, compound 100 μM, trypsin 5 nM, 5 min, 22°C
Method: as §2

T4 sequence (P36873 1-322): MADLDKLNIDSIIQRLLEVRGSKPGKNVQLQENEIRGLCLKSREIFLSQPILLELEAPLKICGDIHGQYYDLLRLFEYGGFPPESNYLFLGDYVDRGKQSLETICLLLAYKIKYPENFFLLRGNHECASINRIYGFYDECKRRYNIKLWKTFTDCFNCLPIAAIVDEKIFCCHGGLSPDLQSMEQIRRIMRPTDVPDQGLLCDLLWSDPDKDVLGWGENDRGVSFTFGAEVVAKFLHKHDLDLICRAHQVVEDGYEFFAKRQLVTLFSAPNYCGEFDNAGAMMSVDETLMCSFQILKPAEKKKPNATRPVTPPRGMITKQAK
T2 sequence (O75807 325-636, stated change not applied): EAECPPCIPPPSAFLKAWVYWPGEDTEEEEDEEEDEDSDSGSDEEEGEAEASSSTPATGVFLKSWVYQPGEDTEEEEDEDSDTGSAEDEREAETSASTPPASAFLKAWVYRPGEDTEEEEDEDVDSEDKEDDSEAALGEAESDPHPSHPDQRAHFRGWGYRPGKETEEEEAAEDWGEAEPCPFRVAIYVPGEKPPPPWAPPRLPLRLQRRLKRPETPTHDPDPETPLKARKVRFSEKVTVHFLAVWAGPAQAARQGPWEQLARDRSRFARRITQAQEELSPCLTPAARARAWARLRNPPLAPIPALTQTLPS
T2 sequence (P36873 1-322 partner): as the sequence (P36873 1-322) above
T3 sequence (P36873 1-322 partner limits assumed, one chain of several): as the sequence (P36873 1-322) above
Chain of R15A (O75807 325-636, stated change not applied): as the sequence (O75807 325-636, stated change not applied) above

SMILES: CC(C)C[C@@H](C=O)NC(=O)[C@H](CC(C)C)NC(=O)[C@H](CC(C)C)NC(=O)OCc1ccccc1 [MG-132] (Cbz-Leu-Leu-Leu-aldehyde)
Effect of co-treatment on the Raphin1-induced decrease in R15B [1]: prevented

SMILES: C[C@@H]1C[C@@H]([C@H](O)CC2CC(=O)NC(=O)C2)C(=O)[C@@H](C)C1 [cycloheximide, Cycloheximide]
Liver steatosis (Oil Red O) [2]: caused liver steatosis

Effect of co-treatment on the Raphin1-induced decrease in R15B [1]: essentially abrogated
SMILES: Cc1cc(OCc2nnc(SC3CCCC3)n2-c2cccnc2)ccc1-c1ccc(S(C)(=O)=O)cc1 [NSM-873]

Binding to R15A-PP1c (in words) [3]: no detectable binding
Binding to R15B-PP1c (in words) [4]: no detectable binding
Binding to PP1c alone (in words) [5]: no detectable binding
SMILES: N=C(N)N/N=C/c1ncccc1Cl [compound C3]

Protease sensitivity of R15B (limited proteolysis, conformational change) [6]: neither GBZ nor Sephin1 affected
Inhibition of PP1c (dephosphorylation of difluoro-4-methylumbelliferyl phosphate) [7]: did not inhibit
Binding to R15A-PP1c (in words) [3]: strongly bound
Kd ([3]; holophosphatase reconstituted on SA chip, 20°C, mean ± SD, read-out: KD, steady-state affinity for R15A-PP1c): 122 nM and < 10000 nM
Binding to R15B-PP1c (in words) [4]: did not bind or only weakly bound
Binding to PP1c alone (in words) [5]: did not measurably bind
SMILES: N=C(N)N/N=C/c1c(Cl)cccc1Cl [GBZ, Guanabenz]
eIF2α phosphorylation [8]: no measurable effects
Protein synthesis (in words) ([9]; HeLa cells, unstressed): no measurable effects
Label (%), newly synthesized proteins (35S-methionine) ([9]; 1 h): 94%
Label (%), newly synthesized proteins (35S-methionine) ([9]; 2 h): 92%
Label (%), newly synthesized proteins (35S-methionine) ([9]; 5 h): 103%
Label (%), newly synthesized proteins (35S-methionine) ([9]; 7.5 h): 96%
Label (%), newly synthesized proteins (35S-methionine) ([9]; 10 h): 97%
Protease sensitivity of R15A (limited proteolysis, conformational change) [10]: increased resistance to limited-proteolysis

SMILES: Cc1cc2c(C(N)=O)cccc2n1-c1nc2c(c(NCc3ccccc3)n1)COCC2 [CB-5083]
Effect of co-treatment on the Raphin1-induced decrease in R15B [1]: essentially abrogated

SMILES: COC[C@@H]([C@H](O)[C@H](O)C(=O)NCC[C@H](C)c1nc(/C=C/C[C@@H]2O[C@]3(C[C@@H](O)[C@@H]2C)O[C@H]([C@H](C[C@H](O)[C@H](C)[C@H](O)[C@H](C)/C=C(C)/C(C)=C/C=C/C(C)=C\C#N)OC)[C@H](OP(=O)(O)O)C3(C)C)co1)N(C)C [Calyculin A]
Inhibition of PP1c (dephosphorylation of difluoro-4-methylumbelliferyl phosphate) [7]: inhibited
